Measured values from PubChem BioAssay (NCI).
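Five concentrations, 48 hours, 96-well plates. At the TGI there is no net growth.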

How the values were obtained:
Assay in all cases: NCI tumour cell line growth inhibition, 48 h
ACHN renal = test system: ACHN renal
DU-145 prostate = test system: DU-145 prostate
HCC-2998 colon = test system: HCC-2998 colon
IGROV1 ovarian = test system: IGROV1 ovarian
KM12 colon = test system: KM12 colon
LOX IMVI melanoma = test system: LOX IMVI melanoma
MDA-MB-231 breast = test system: MDA-MB-231 breast
MDA-N = test system: MDA-N
NCI-H23 lung = test system: NCI-H23 lung
OVCAR-3 ovarian = test system: OVCAR-3 ovarian
OVCAR-5 ovarian = test system: OVCAR-5 ovarian
RPMI-8226 leukemia = test system: RPMI-8226 leukemia
RXF 393 renal = test system: RXF 393 renal
SK-MEL-28 melanoma = test system: SK-MEL-28 melanoma
SK-OV-3 ovarian = test system: SK-OV-3 ovarian
SNB-19 CNS = test system: SNB-19 CNS
T-47D breast = test system: T-47D breast
TK-10 renal = test system: TK-10 renal
EKVX NSCLC = test system: EKVX NSCLC
NCI-H522 lung = test system: NCI-H522 lung

Row | Compound | TGI (ACHN renal) [µM] | TGI (DU-145 prostate) [µM] | TGI (HCC-2998 colon) [µM] | TGI (IGROV1 ovarian) [µM] | TGI (KM12 colon) [µM] | TGI (LOX IMVI melanoma) [µM] | TGI (MDA-MB-231 breast) [µM] | TGI (MDA-N) [µM] | TGI (NCI-H23 lung) [µM] | TGI (OVCAR-3 ovarian) [µM] | TGI (OVCAR-5 ovarian) [µM] | TGI (RPMI-8226 leukemia) [µM] | TGI (RXF 393 renal) [µM] | TGI (SK-MEL-28 melanoma) [µM] | TGI (SK-OV-3 ovarian) [µM] | TGI (SNB-19 CNS) [µM] | TGI (T-47D breast) [µM] | TGI (TK-10 renal) [µM] | TGI (EKVX NSCLC) [µM] | TGI (NCI-H522 lung) [µM]
1 | CC(=O)O[C@H]1CCC2[C@@H]3CCC4Nc5oncc5C[C@]4(C)C3CC[C@@]21C (some centres not stated) | > 10 | > 10 | > 10 | > 10 | > 10 | > 10 | > 10 | > 10 | > 10 | > 10 | > 10 | > 10 | > 10 | > 10 | > 10 | > 10 | > 10 | > 10 |  | 
2 | COc1ccc(-c2csc(Cc3nc4ccccc4c(=O)n3-c3ccc(Cl)cc3)n2)cc1 | > 100 | > 100 | > 100 | > 100 | > 100 | > 100 | > 100 | 59 | > 100 | > 100 | 62.1 | 45.8 | > 100 | 59.5 | > 100 | 77.7 |  | > 100 | 62.7 | > 100
3 | CN1CCc2c(sc3ncn(C)c(=N)c23)C1 | > 100 | > 100 |  | > 100 | > 100 | > 100 | > 100 | > 100 | > 100 | > 100 | > 100 | > 100 | > 100 | > 100 | > 100 | > 100 | > 100 | > 100 | > 100 | > 100
4 | CC(O)CCCCC(O)CCC[C@H](O)[C@H]1CCC([C@H]2CCC([C@@H](O)CCCCCCCCCCCCC3=C[C@H](C)OC3=O)O2)O1 (some centres not stated) | 21.1 | 23.2 | 23.9 | 21.1 | 16.2 |  | 21.6 | 22 | 19.5 | 19.1 | 22 |  | 22.5 | 23.9 | 22.1 | 20.2 |  | 19.6 | 17.4 | 16.7
5 | CC1(C)CC(=O)C(C=NC(=O)c2ccncc2)=C(O)C1 | > 100 | > 100 | > 100 | > 100 | > 100 | > 100 | > 100 | > 100 | > 100 | > 100 | > 100 |  | > 100 | > 100 | > 100 | > 100 |  | > 100 | > 100 | > 100
6 | CCOC(=O)c1nc2ccc(C(F)(F)F)cc2[nH]c1=O | > 100 | > 100 | > 100 | > 100 | > 100 | > 100 | > 100 | > 100 | > 100 | > 100 | > 100 | > 100 | > 100 | > 100 | > 100 | > 100 | > 100 | > 100 |  | 
7 | CN(C)CCNC(=O)c1ccc2nc3c(nc2c1)C(=O)c1ccccc1-3 | > 100 | > 100 | > 100 | > 100 | > 100 | 73.4 |  | 33.6 | > 100 | > 100 | > 100 | 63.3 | > 100 | > 100 | > 100 | > 100 |  | > 100 | > 100 | > 100
8 | Cc1cc(C)c(C(=O)c2nnc3ccccc3c2N)c(C)c1 | > 100 | 84 |  | 46.7 | 42 | 34.9 | 63.8 | 52.6 | > 100 | 36.6 | > 100 | > 100 |  | 56.7 | > 100 | > 100 | 56.6 |  |  | 
9 | O=C1/C(=C/c2cccc(Br)c2)Cc2ccccc21 | > 100 | > 100 |  | > 100 | > 100 | > 100 | > 100 | > 100 | > 100 | > 100 | > 100 | > 100 |  | > 100 | > 100 | > 100 |  | > 100 | > 100 | > 100
10 | CCC(=O)O[C@H]1CC[C@H]2[C@@H]3CCC4=C/C(=N/OC(=O)c5cccc6c(=O)c7ccccc7[nH]c56)CC[C@]4(C)[C@H]3CC[C@]12C | > 100 |  | 41.2 | 77.6 | 55.1 | 51.4 | > 100 | > 100 | > 100 | 38.4 | > 100 | 54.7 | 45.4 | > 100 | > 100 | > 100 | > 100 | > 100 | > 100 | 56.1
11 | CCOC(=O)C1(C/C=C/CBr)CCc2ccccc2C1=O (configuration not stated) | 29.1 | 26.9 |  | 26.2 | 30.7 | 27.5 | 56 | 30.3 | 39.8 |  | 70.2 |  | 18.4 | 35.6 | 33.1 | 30.8 | 34.8 | 35.2 | 55 | 31.9
12 | c1ccc(NN=C(c2ccccn2)c2ccccn2)nc1 | > 100 | > 100 | > 100 | > 100 | > 100 | > 100 | > 100 | > 100 | > 100 | > 100 | > 100 |  | > 100 | > 100 | > 100 | > 100 |  | > 100 | > 100 | > 100
13 | COc1cc(C(C)=O)cc(C(=O)N(C(C)C)C(C)C)c1[Si](C)(C)C | > 100 | > 100 |  | > 100 | > 100 | > 100 | > 100 | > 100 | > 100 | > 100 |  |  |  | > 100 | 99.2 | > 100 | > 100 | > 100 |  | > 100
14 | O=c1cc(CO)oc(C(O)c2ccccc2)c1O (configuration not stated) | > 100 | > 100 | > 100 | > 100 | > 100 | > 100 | > 100 | > 100 | > 100 | > 100 | > 100 | > 100 | > 100 | > 100 | > 100 | > 100 | > 100 | > 100 |  | > 100
15 | COC(=O)c1c(C#N)[nH]c(-c2ccsc2)c1C(=O)OC | > 100 | > 100 |  | > 100 | > 100 | > 100 | > 100 | > 100 | > 100 | > 100 | > 100 | > 100 | > 100 | > 100 | > 100 |  | > 100 | > 100 | > 100 | > 100
16 | CC(C)CC(NC(=O)C(CI)Cc1ccccc1)C(=O)Nc1ccccc1 (configuration not stated) | > 100 | > 100 | > 100 | > 100 | > 100 | > 100 | > 100 | > 100 | > 100 | > 100 | > 100 | > 100 | > 100 | > 100 | > 100 | > 100 |  | > 100 | > 100 | > 100
17 | O=C(O)c1nc2ccc(C(F)(F)F)cc2nc1NCc1ccc(F)cc1 | > 100 | > 100 | 65.6 | > 100 | > 100 | 36.5 | 81.4 | 76.9 | 79.8 | 33.2 | 42.5 | > 100 | > 100 | > 100 | 93 | > 100 | > 100 |  | 68.3 | 
18 | COc1ccc(OC)c(C(Cc2ccnc3ccccc23)Cc2ccnc3ccccc23)c1 | > 10 | > 10 | > 10 | > 10 | > 10 | > 10 | > 10 |  | > 10 | > 10 | > 10 | > 10 | > 10 | > 10 | > 10 | > 10 | > 10 | > 10 | > 10 | > 10
19 | N#CC1=C(Nc2ccccc2)SC=C(c2ccccc2)NC1=NCc1ccccc1 | > 100 | > 100 |  |  | > 100 |  | > 100 | > 100 | > 100 | > 100 | > 100 | > 100 | > 100 | > 100 | > 100 | > 100 | > 100 | > 100 |  | > 100
20 | Fc1ccc(C(=C2CCN(CCc3ccc4[nH]c(=S)[nH]c4c3)CC2)c2ccc(F)cc2)cc1 | 24.1 | 8.91 |  | 17 | 19.1 | 39.9 | 15 | 4.81 | 13.1 | 4.23 | 23 | 8.67 | 3.49 | 2.63 | 36.8 | 27.9 | 4.1 | 4.74 | 9.04 | 3.65
21 | COc1ccc(C2OC(N)=C(C#N)C3=C2CCCC3C)cc1OC (configuration not stated) | > 100 | > 100 |  | > 100 | > 100 | > 100 | > 100 | > 100 | > 100 | > 100 | > 100 | > 100 | > 100 | > 100 | > 100 | > 100 | > 100 | > 100 | > 100 | 
22 | CC(C)N(C(=O)C1(O)c2ccccc2C=Cc2ccccc21)C(C)C | 29.5 | 33.1 |  | 28.8 | 49.7 |  | 29.3 | 37.9 | 34.2 | 31.3 | 27.9 | > 100 |  | 31.4 | 53.9 | 44.4 | 37.1 | 31.9 | 32.5 | 25.3
23 | Cc1ccc(-c2n[nH]c(=O)n2/N=C\c2ccc([N+](=O)[O-])cc2)cc1 | > 100 | > 100 | > 100 | > 100 | > 100 | > 100 | > 75.9 |  | > 100 | > 100 | > 100 | > 100 | > 100 | > 100 | > 100 | > 100 | > 100 | > 100 | > 100 | > 100
24 | COC1=CC2C(c3cc4ccccc4n3S(=O)(=O)c3ccccc3)CC1CN2C(=O)OCc1ccccc1 (configuration not stated) | > 100 | > 100 | > 100 | > 100 | > 100 | 57.7 | 58.7 | > 100 | > 100 | > 100 | 45.2 | 44.6 | 69.2 |  | 98.1 |  |  | > 100 | 82.2 | 52.9
25 | O=C(Oc1ccccc1)N1c2ccccc2[C@@]23O[C@]24CCC[C@H]3C#C/C=C\C#C[C@H]14 |  | 30.5 |  | 24.9 | 26.4 | 25.6 | 24.8 | 26.9 | 28.7 | 26.1 | 24.1 | 32.9 | 21.8 | 27 | 17.1 | 29.1 | 22 | 47.8 | 31.8 | 
26 | CC1C[C@]2(C)C(=NCCN)Nc3ccccc3[C@@H]2N(C)c2ccccc21 (some centres not stated) | 29.9 | 28.7 | 9.69 | 27.6 | 30 | 28.2 | 21.1 | 27.8 | 31.4 | 23.7 | 27.4 | 47.4 | 22.1 | 24.3 |  | 27.7 | 39.2 | 21.5 | 33 | 
